The source of these data is patent publication US20230355605A1, “DRUG FOR ENHANCING FIBRINOLYTIC SYSTEM, AND USE THEREFOR” (priority 2020, published 2023).

Each structure is given as a SMILES string.

Data set [1] is classed as physicochemical. The protocol: The present compound (yellowish white powder) was prepared in the following shipping packaging form and then subjected to an accelerated stability study (40° C., 75% RH, 6 months).
Inner package: A double polyethylene bag (100 × 200 mm) was filled with the present compound and sealed with a zip tie. Outer package: The double polyethylene bag filled with the present compound was placed in a fiber drum, and the fiber drum was sealed.
The present compound was stored in the above packaging form under the conditions of 40° C.12° C. and 75% RH15% RH for 6 months. At points after 1 month, 3 months, and 6 months, appearance observation, an identification test (ultraviolet spectrum, infrared absorption spectrum, flame reaction), water content analysis (water absorption), analysis of the content of the present compound, and a purity test (impurity profile) were performed to evaluate the stability of the present compound.

Data set [2] has as its system cynomolgus monkey model of saphenous arterial thrombus. The data set is described as follows: Cynomolgus monkey model of saphenous arterial thrombus (PIT model). It is filed as in vivo. As for the experimental part:
The thrombus formation inhibitory effect of the present compound was evaluated using a cynomolgus monkey model of saphenous arterial thrombus (PIT model) .
Before the procedure, the present compound suspended in a 0.5% CMC-Na aqueous solution was orally administered to test groups of cynomolgus monkeys at dosages of 0.1, 0.3, 1, and 3 mg/kg. […] A light irradiation probe was placed on a saphenous artery of each cynomolgus monkey to cause thrombus formation by applying green light of 540 nm for 20 minutes at the time of intravenously administering rose bengal (20 mg/kg). A decrease in blood flow due to this thrombus formation was measured with a pulse Doppler blood flowmeter, and the thrombus formation inhibitory effect of the present compound was evaluated by measuring the occlusion time on the first day and the cumulative occlusion time.

The test system of data set [3] is mouse model of bleomycin-induced pulmonary fibrosis. Kind of data set: Mouse model of bleomycin-induced pulmonary fibrosis. Type of data set: in vivo. As for the experimental part: The improvement effect of the present compound on pulmonary fibrosis (remodeling after lung damage) was evaluated using a mouse model of bleomycin-induced pulmonary fibrosis. […] Because of similarity of histopathological changes to pulmonary fibrosis in humans, this mouse model is widely used for the evaluation of the drug efficacy.
To a fibrosis mouse model (fibrosis model group) given a single dose of bleomycin (1.2 mg/mL), the present compound (0.75 mg/kg/day) was orally administered for 21 days (present compound administration group, n = 9), and biochemical analysis of the lungs and measurement of clinical conditions of the lungs were performed on day 22. For comparison, instead of the present compound, the solvent used to dissolve the present compound was administered to a fibrosis model group in the same manner (vehicle group, n = 10), and biochemical analysis and measurement of clinical conditions of the lungs were performed. As a positive control group, a dexamethasone administration group (0.25 mg/kg administration, n = 9) was used. The biochemical analysis was performed using lung hydroxyproline values as an index. The clinical conditions of the lungs were evaluated by performing Masson’s trichrome staining and calculating Ashcroft scores according to a report of Ashcroft et al. (Ashcroft T et al., J Clin Pathol, 1988; 41:467). The clinical conditions were confirmed by comparing a normal mouse group (normal group, n = 10) with the vehicle group (n = 10), and the improvement effect of the present compound on pulmonary fibrosis was evaluated by comparing the vehicle group (n = 10) with the present compound administration group (n = 9). Differences between the mean values of the groups were tested by the Bonferroni selected pairs test using Prism 4 (GraphPad Software).
Table 1 and FIG. 3(A) and FIG. 3(B) show the results of comparisons of the lung hydroxyproline values and the Ashcroft scores in the groups. The mean values of the groups are expressed as mean±SD, and examination was performed at a 5% significance level.

In another data set the test system is cynomolgus monkeys. The data set is described as follows: 39-week repeated oral dose toxicity study in cynomolgus monkeys. The following applies: 10, 30, 100 mg/kg oral, 39 weeks. It is filed as in vivo. As for the experimental part: A GLP-compliant 39-week repeated oral dose study was performed in cynomolgus monkeys at dosages of 10, 30, and 100 mg/kg.
A further data set has as its system CHL/IU cells. The data set is described as follows: Chromosomal abnormality study. Type of data set: cell-based, Chinese hamster. The following applies: with and without S9 mix. As for the experimental part: A study on the clastogenic property of the present compound was performed in the presence of a drug metabolism-activating enzyme (S9 mix) (hereinafter referred to as a “metabolic activation method”) and in the absence of a drug metabolism-activating enzyme (S9 mix) (hereinafter referred to as a “direct method”) using mammalian cultured cells (Chinese hamster cultured cells (CHL/IU cells)).

Details of data set [4]: species or system human. The following applies: in vivo, po. The protocol:
A placebo-controlled single oral dose study was performed to examine the safety and pharmacokinetics upon single oral dose administration of the present compound in healthy Japanese adult males (subjects).
The oral dosages were 30 mg (step 1), 60 mg (step 2), 120 mg (step 3), and 240 mg (step 5) per day, and the food effect was separately examined in administration at a dosage of 60 mg (step 4) (a total of five steps). In steps 1 to 3 and 5, the number of subjects per step was 8 (6 subjects in the present compound administration group and 2 subjects in the placebo group), of which 1 subject of the present compound administration group and 1 subject of the placebo group were used as the preceding group, and 5 subjects of the present compound administration group and 1 subject of the placebo group were used as the following group. The study proceeds to the following group after confirming safety in the preceding group. The transition from one step to the next was made after confirming safety. In step 4, which examines the food effect, the present compound was orally administered to all 6 subjects. […]
After administration of the present compound and the placebo, the following items were evaluated in each subject. […]

[5] abbreviates: day 22, present compound 0.75 mg/kg/day oral 21 days, dexamethasone 0.25 mg/kg, mean±SD.

Turning to `O=C(Nc1ccc(Cl)cc1C(=O)[O-])c1cccc(-c2cccc3cccnc23)c1.[Na+]` [present compound, sodium 5-chloro-2-({ [3-(quinolin-8-yl)phenyl]carbonyl}amino)benzoate], the “period stable in the accelerated stability study” value in data set [1] (6 months) was “at least 6 months”. The “change from the state before storage (appearance, identification, water content, content, purity)” value in data set [1] (40° C., 75% RH, after 1, 3 and 6 months, shipping packaging) is “no change”. The “initial occlusion time vs vehicle group” value in data set [2] (0.3 mg/kg oral, P<0.05) was “Significant prolongation”. Moreover, in data set [2] (0.1, 0.3, 1.0, 3.0 mg/kg oral, P<0.01, dose-dependent), the “cumulative occlusion time vs vehicle group” value is listed as “significant reductions”. The minimum effective dosage in data set [2] (oral administration to monkeys) is listed as 0.1 mg/kg. In addition, in data set [3] (5% significance level), the “Ashcroft score compared with vehicle group” value was “significantly lower” and the “lung hydroxyproline value compared with vehicle group” value is reported as “significantly lower”. In data set [3] (setting [5]), the Ashcroft score amounted to 2.2±0.3 and the Lung hydroxyproline value was found to be 58.7±10.1 µg/left lung. In addition, in the data set with cynomolgus monkeys, the “deaths during the administration period” value is on record as “No deaths” and the “effect on general condition, body weight, food consumption, ophthalmology, ECG, hematology, urinalysis, necropsy, organ weights” value is “No effect”. Also, in the data set with CHL/IU cells, the clastogenic effect entry is “no clastogenic effect”. In addition, in data set [4], the AUC versus dosage entry is reported as “linearity”.
